± gives the expanded uncertainty stated by the source.
Conditions: for mass density: Vibrating tube method; for vapor or sublimation pressure: Closed cell (Static) method

CCC [propane]
mass density (240 K, 527.3 kPa, Fluid (supercritical or subcritical phases)): 570.78 ± 0.27 kg/m3 | mass density (240 K, 1044.8 kPa, Fluid (supercritical or subcritical phases)): 571.46 ± 0.28 kg/m3 | mass density (240 K, 1522.4 kPa, Fluid (supercritical or subcritical phases)): 572.08 ± 0.29 kg/m3 | mass density (240 K, 1978.3 kPa, Fluid (supercritical or subcritical phases)): 572.68 ± 0.29 kg/m3 | mass density (240 K, 2477.9 kPa, Fluid (supercritical or subcritical phases)): 573.32 ± 0.3 kg/m3 | mass density (240 K, 2999.9 kPa, Fluid (supercritical or subcritical phases)): 573.98 ± 0.3 kg/m3 | mass density (240 K, 3513 kPa, Fluid (supercritical or subcritical phases)): 574.62 ± 0.31 kg/m3 | mass density (240 K, 4045.7 kPa, Fluid (supercritical or subcritical phases)): 575.29 ± 0.31 kg/m3 | mass density (240 K, 4504.5 kPa, Fluid (supercritical or subcritical phases)): 575.85 ± 0.32 kg/m3 | mass density (240 K, 4957.8 kPa, Fluid (supercritical or subcritical phases)): 576.41 ± 0.32 kg/m3 | mass density (240 K, 5475.7 kPa, Fluid (supercritical or subcritical phases)): 577.04 ± 0.33 kg/m3 | mass density (240 K, 6018.3 kPa, Fluid (supercritical or subcritical phases)): 577.69 ± 0.33 kg/m3 | mass density (240 K, 6523.2 kPa, Fluid (supercritical or subcritical phases)): 578.3 ± 0.34 kg/m3 | mass density (240 K, 7043.3 kPa, Fluid (supercritical or subcritical phases)): 578.91 ± 0.35 kg/m3 | vapor or sublimation pressure (240 K, Liquid): 147.9 ± 0.6 kPa | mass density (240 K, Liquid): 570.28 ± 0.27 kg/m3 | mass density (250 K, 513.8 kPa, Fluid (supercritical or subcritical phases)): 558.73 ± 0.28 kg/m3 | mass density (250 K, 1008.1 kPa, Fluid (supercritical or subcritical phases)): 559.47 ± 0.28 kg/m3 | mass density (250 K, 1508.3 kPa, Fluid (supercritical or subcritical phases)): 560.2 ± 0.29 kg/m3 | mass density (250 K, 2008.3 kPa, Fluid (supercritical or subcritical phases)): 560.93 ± 0.29 kg/m3 | mass density (250 K, 2524.1 kPa, Fluid (supercritical or subcritical phases)): 561.67 ± 0.3 kg/m3 | mass density (250 K, 3016.9 kPa, Fluid (supercritical or subcritical phases)): 562.38 ± 0.3 kg/m3 | mass density (250 K, 3503.7 kPa, Fluid (supercritical or subcritical phases)): 563.05 ± 0.31 kg/m3 | mass density (250 K, 3993.1 kPa, Fluid (supercritical or subcritical phases)): 563.74 ± 0.32 kg/m3 | mass density (250 K, 4478.5 kPa, Fluid (supercritical or subcritical phases)): 564.4 ± 0.32 kg/m3 | mass density (250 K, 5045.1 kPa, Fluid (supercritical or subcritical phases)): 565.17 ± 0.33 kg/m3 | mass density (250 K, 5495.4 kPa, Fluid (supercritical or subcritical phases)): 565.78 ± 0.33 kg/m3 | mass density (250 K, 5999.9 kPa, Fluid (supercritical or subcritical phases)): 566.46 ± 0.34 kg/m3 | mass density (250 K, 6543.5 kPa, Fluid (supercritical or subcritical phases)): 567.17 ± 0.35 kg/m3 | mass density (250 K, 7010.3 kPa, Fluid (supercritical or subcritical phases)): 567.78 ± 0.35 kg/m3 | vapor or sublimation pressure (250 K, Liquid): 217.7 ± 0.6 kPa | mass density (250 K, Liquid): 558.29 ± 0.27 kg/m3 | mass density (260 K, 506.6 kPa, Fluid (supercritical or subcritical phases)): 546.1 ± 0.28 kg/m3 | mass density (260 K, 1013.8 kPa, Fluid (supercritical or subcritical phases)): 546.96 ± 0.29 kg/m3 | mass density (260 K, 1503.5 kPa, Fluid (supercritical or subcritical phases)): 547.77 ± 0.29 kg/m3 | mass density (260 K, 1999.7 kPa, Fluid (supercritical or subcritical phases)): 548.6 ± 0.3 kg/m3 | mass density (260 K, 2504.5 kPa, Fluid (supercritical or subcritical phases)): 549.42 ± 0.3 kg/m3 | mass density (260 K, 3012.1 kPa, Fluid (supercritical or subcritical phases)): 550.24 ± 0.31 kg/m3 | mass density (260 K, 3513.3 kPa, Fluid (supercritical or subcritical phases)): 551.04 ± 0.31 kg/m3 | mass density (260 K, 4020 kPa, Fluid (supercritical or subcritical phases)): 551.84 ± 0.32 kg/m3 | mass density (260 K, 4498.9 kPa, Fluid (supercritical or subcritical phases)): 552.58 ± 0.33 kg/m3 | mass density (260 K, 5014.5 kPa, Fluid (supercritical or subcritical phases)): 553.38 ± 0.33 kg/m3 | mass density (260 K, 5513.9 kPa, Fluid (supercritical or subcritical phases)): 554.12 ± 0.34 kg/m3 | mass density (260 K, 6028.2 kPa, Fluid (supercritical or subcritical phases)): 554.89 ± 0.34 kg/m3 | mass density (260 K, 6522.8 kPa, Fluid (supercritical or subcritical phases)): 555.62 ± 0.35 kg/m3 | mass density (260 K, 7048.9 kPa, Fluid (supercritical or subcritical phases)): 556.4 ± 0.36 kg/m3 | vapor or sublimation pressure (260 K, Liquid): 310.3 ± 0.7 kPa | mass density (260 K, Liquid): 545.77 ± 0.28 kg/m3 | mass density (270 K, 504.7 kPa, Fluid (supercritical or subcritical phases)): 532.93 ± 0.28 kg/m3 | mass density (270 K, 1012.9 kPa, Fluid (supercritical or subcritical phases)): 533.91 ± 0.29 kg/m3 | mass density (270 K, 1510.4 kPa, Fluid (supercritical or subcritical phases)): 534.87 ± 0.3 kg/m3 | mass density (270 K, 2005.4 kPa, Fluid (supercritical or subcritical phases)): 535.83 ± 0.3 kg/m3 | mass density (270 K, 2499.6 kPa, Fluid (supercritical or subcritical phases)): 536.75 ± 0.31 kg/m3 | mass density (270 K, 3017.5 kPa, Fluid (supercritical or subcritical phases)): 537.7 ± 0.31 kg/m3 | mass density (270 K, 3497.1 kPa, Fluid (supercritical or subcritical phases)): 538.57 ± 0.32 kg/m3 | mass density (270 K, 4018.8 kPa, Fluid (supercritical or subcritical phases)): 539.5 ± 0.33 kg/m3 | mass density (270 K, 4488.2 kPa, Fluid (supercritical or subcritical phases)): 540.32 ± 0.33 kg/m3 | mass density (270 K, 5023.8 kPa, Fluid (supercritical or subcritical phases)): 541.26 ± 0.34 kg/m3 | mass density (270 K, 5504.7 kPa, Fluid (supercritical or subcritical phases)): 542.05 ± 0.34 kg/m3 | mass density (270 K, 6021.1 kPa, Fluid (supercritical or subcritical phases)): 542.91 ± 0.35 kg/m3 | mass density (270 K, 6525.8 kPa, Fluid (supercritical or subcritical phases)): 543.74 ± 0.36 kg/m3 | mass density (270 K, 7024.1 kPa, Fluid (supercritical or subcritical phases)): 544.55 ± 0.36 kg/m3 | vapor or sublimation pressure (270 K, Liquid): 429.6 ± 0.8 kPa | mass density (270 K, Liquid): 532.67 ± 0.28 kg/m3 | mass density (280 K, 1000 kPa, Fluid (supercritical or subcritical phases)): 520.1 ± 0.29 kg/m3 | mass density (280 K, 1466.1 kPa, Fluid (supercritical or subcritical phases)): 521.15 ± 0.3 kg/m3 | mass density (280 K, 1964.2 kPa, Fluid (supercritical or subcritical phases)): 522.28 ± 0.31 kg/m3 | mass density (280 K, 2513 kPa, Fluid (supercritical or subcritical phases)): 523.49 ± 0.31 kg/m3 | mass density (280 K, 3032.9 kPa, Fluid (supercritical or subcritical phases)): 524.61 ± 0.32 kg/m3 | mass density (280 K, 3519.3 kPa, Fluid (supercritical or subcritical phases)): 525.6 ± 0.32 kg/m3 | mass density (280 K, 4049.7 kPa, Fluid (supercritical or subcritical phases)): 526.68 ± 0.33 kg/m3 | mass density (280 K, 4527.5 kPa, Fluid (supercritical or subcritical phases)): 527.65 ± 0.34 kg/m3 | mass density (280 K, 4963.1 kPa, Fluid (supercritical or subcritical phases)): 528.5 ± 0.34 kg/m3 | mass density (280 K, 5443.4 kPa, Fluid (supercritical or subcritical phases)): 529.45 ± 0.35 kg/m3 | mass density (280 K, 5982.8 kPa, Fluid (supercritical or subcritical phases)): 530.51 ± 0.36 kg/m3 | mass density (280 K, 6522.6 kPa, Fluid (supercritical or subcritical phases)): 531.56 ± 0.36 kg/m3 | mass density (280 K, 7034.7 kPa, Fluid (supercritical or subcritical phases)): 532.51 ± 0.37 kg/m3 | mass density (290 K, 1499.4 kPa, Fluid (supercritical or subcritical phases)): 506.71 ± 0.3 kg/m3 | mass density (290 K, 2004.4 kPa, Fluid (supercritical or subcritical phases)): 508.04 ± 0.31 kg/m3 | mass density (290 K, 2510 kPa, Fluid (supercritical or subcritical phases)): 509.33 ± 0.32 kg/m3 | mass density (290 K, 2998.9 kPa, Fluid (supercritical or subcritical phases)): 510.56 ± 0.32 kg/m3 | mass density (290 K, 3484 kPa, Fluid (supercritical or subcritical phases)): 511.74 ± 0.33 kg/m3 | mass density (290 K, 4018.1 kPa, Fluid (supercritical or subcritical phases)): 513.03 ± 0.34 kg/m3 | mass density (290 K, 4476.9 kPa, Fluid (supercritical or subcritical phases)): 514.12 ± 0.34 kg/m3 | mass density (290 K, 5036.3 kPa, Fluid (supercritical or subcritical phases)): 515.41 ± 0.35 kg/m3 | mass density (290 K, 5531.4 kPa, Fluid (supercritical or subcritical phases)): 516.52 ± 0.36 kg/m3 | mass density (290 K, 5957.4 kPa, Fluid (supercritical or subcritical phases)): 517.46 ± 0.36 kg/m3 | mass density (290 K, 6525.4 kPa, Fluid (supercritical or subcritical phases)): 518.7 ± 0.37 kg/m3 | mass density (290 K, 7049.2 kPa, Fluid (supercritical or subcritical phases)): 519.81 ± 0.38 kg/m3 | vapor or sublimation pressure (290 K, Liquid): 768.6 ± 1.2 kPa | mass density (290 K, Liquid): 504.75 ± 0.29 kg/m3 | mass density (300 K, 1517.7 kPa, Fluid (supercritical or subcritical phases)): 491.19 ± 0.3 kg/m3 | mass density (300 K, 2015.2 kPa, Fluid (supercritical or subcritical phases)): 492.77 ± 0.31 kg/m3 | mass density (300 K, 2519.2 kPa, Fluid (supercritical or subcritical phases)): 494.32 ± 0.32 kg/m3 | mass density (300 K, 3032.3 kPa, Fluid (supercritical or subcritical phases)): 495.86 ± 0.33 kg/m3 | mass density (300 K, 3486.3 kPa, Fluid (supercritical or subcritical phases)): 497.18 ± 0.33 kg/m3 | mass density (300 K, 4036.8 kPa, Fluid (supercritical or subcritical phases)): 498.73 ± 0.34 kg/m3 | mass density (300 K, 4462.1 kPa, Fluid (supercritical or subcritical phases)): 499.91 ± 0.35 kg/m3 | mass density (300 K, 4937 kPa, Fluid (supercritical or subcritical phases)): 501.23 ± 0.35 kg/m3 | mass density (300 K, 5518.9 kPa, Fluid (supercritical or subcritical phases)): 502.75 ± 0.36 kg/m3 | mass density (300 K, 6063.5 kPa, Fluid (supercritical or subcritical phases)): 504.2 ± 0.37 kg/m3

From the NIST ThermoML archive (doi:10.1021/je049672l)
